Reference: patent US20030022821A1, “Bioactive peptides” (priority 1998, published 2003)
Values after ≈ are worked out from the molar mass of the structure shown. Read-outs that look alike come from different tables or passages of the source. Peptide text beside a SMILES is read from it. * marks the point of attachment. Acm = CC(=O)NC*

Key:
Assay type in all cases: cell-based
[1] = tested on: Escherichia coli ATCC 25922
Summary of the method: (§1)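 Bacteria in mid-log phase, grown in 2% Bacto Peptone water, were tested by standard microdilution in 1% Bacto Peptone water at an inoculum of 2×10^6 CFU/ml. Runs were in triplicate, and peptide concentration in the wells was checked by HPLC.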

[2] = tested on: Staphylococcus aureus ATCC 25923
Summary of the method: as §1

human red blood cells = assay: Hemolytic assay; settings: red cells of human
Protocol: The hemolytic activities of the peptides were determined using fresh human red blood cells. 8 ml blood was taken from a healthy person. 4 ml blood was transferred to a polycarbonate tube containing heparin to a final concentration of 10 U/ml, and the remaining 4 ml blood was transferred to a glass tube containing EDTA with final concentration of 15% EDTA. The erythrocytes were isolated from heparin-treated blood by centrifugation in 1500 rpm for 10 min and washed three times with phosphate-buffered saline (PBS) to remove plasma and buffy coat. The cell pellet was resuspended in PBS to make the final volume of 4 ml. The peptide was diluted to a concentration of 2 mg/ml and 0.1 mg/ml. The peptide was further diluted to the concentrations as stated in Table 15. For each tube PBS was added first, then RBCs and peptide solutions. The hematocrit in the blood treated with EDTA was determined after 30 min with Sysmex K-1000, and the resuspended RBCs were diluted into 10% hematocrit. RBCs in PBS (1%) with and without peptides (Table 15) were incubated in a shaker at […] for 1 hour and then centrifuged at 4000 rpm for 5 min. The supernatant were carefully transferred to new polycarbonate tubes and the absorbance of the supernatant was measured at 540 nm. Baseline hemolysis was hemoglobin released in the presence of PBS, and 100% hemolysis was hemoglobin released in the presence of 0.1% Triton X-100.

| MIC E. coli ([1]; ATCC 25922) [µg/mL] | MIC S. aureus ([2]; ATCC 25923) [µg/mL] | MIC E. coli ([1]; Table 6) [µg/mL] | MIC S. aureus ([2]; Table 6, unit assumed) [µg/mL] | SMILES | % Hemolysis 10 μg/ml (human red blood cells) [%] | % Hemolysis 100 μg/ml (human red blood cells) [%] |
| --- | --- | --- | --- | --- | --- | --- |
| 20 (≈ 9.63 µM) | 75 (≈ 36.1 µM) |  |  | CSCC[C@H](NC(=O)[C@H](CCCNC(=N)N)NC(=O)[C@H](Cc1c[nH]c2ccccc12)NC(=O)[C@H](CCC(N)=O)NC(=O)[C@H](Cc1ccc2ccccc2c1)NC(=O)[C@H](CCCNC(=N)N)NC(=O)[C@H](CCCNC(=N)N)NC(=O)[C@H](CSCNC(C)=O)NC(=O)[C@H](CCCCN)NC(=O)[C@@H](N)Cc1ccccc1)C(=O)N[C@@H](CCCCN)C(=O)N[C@@H](CCCCN)C(=O)N[C@@H](CC(C)C)C(=O)NCC(=O)N[C@@H](C)C(=O)O [LFB Nal6] | 2.2 | 4.4 |
| 20 (≈ 8.54 µM) | 10 (≈ 4.27 µM) |  |  | CSCC[C@H](NC(=O)[C@H](CCCNC(=N)N)NC(=O)[C@H](Cc1ccc2ccccc2c1)NC(=O)[C@H](CCC(N)=O)NC(=O)[C@H](Cc1c(S(=O)(=O)c2c(C)c(C)c3c(c2C)CCC(C)(C)O3)[nH]c2ccccc12)NC(=O)[C@H](CCCNC(=N)N)NC(=O)[C@H](CCCNC(=N)N)NC(=O)[C@H](CSCNC(C)=O)NC(=O)[C@H](CCCCN)NC(=O)[C@@H](N)Cc1ccccc1)C(=O)N[C@@H](CCCCN)C(=O)N[C@@H](CCCCN)C(=O)N[C@@H](CC(C)C)C(=O)NCC(=O)N[C@@H](C)C(=O)O [LFB Nal8 PMC] | 6.96 | 18.86 |
| 10 (≈ 4.82 µM) | 50 (≈ 24.1 µM) |  |  | CSCC[C@H](NC(=O)[C@H](CCCNC(=N)N)NC(=O)[C@H](Cc1ccc2ccccc2c1)NC(=O)[C@H](CCC(N)=O)NC(=O)[C@H](Cc1c[nH]c2ccccc12)NC(=O)[C@H](CCCNC(=N)N)NC(=O)[C@H](CCCNC(=N)N)NC(=O)[C@H](CSCNC(C)=O)NC(=O)[C@H](CCCCN)NC(=O)[C@@H](N)Cc1ccccc1)C(=O)N[C@@H](CCCCN)C(=O)N[C@@H](CCCCN)C(=O)N[C@@H](CC(C)C)C(=O)NCC(=O)N[C@@H](C)C(=O)O [LFB Nal8] | 3 | 4.7 |
| 20 (≈ 9.63 µM) | 20 (≈ 9.63 µM) | 20 (≈ 9.63 µM) | 20 (≈ 9.63 µM) | CSCC[C@H](NC(=O)[C@H](CCCNC(=N)N)NC(=O)[C@H](Cc1c[nH]c2ccccc12)NC(=O)[C@H](CCC(N)=O)NC(=O)[C@H](Cc1c[nH]c2ccccc12)NC(=O)[C@H](CCCNC(=N)N)NC(=O)[C@H](CCCNC(=N)N)NC(=O)[C@H](Cc1c[nH]c2ccccc12)NC(=O)[C@H](CCCCN)NC(=O)[C@@H](N)Cc1ccccc1)C(=O)N[C@@H](CCCCN)C(=O)N[C@@H](CCCCN)C(=O)N[C@@H](CC(C)C)C(=O)NCC(=O)N[C@@H](C)C(=O)O [LFB W3, H2N-Phe-Lys-Trp-Arg-Arg-Trp-Gln-Trp-Arg-Met-Lys-Lys-Leu-Gly-Ala-COOH] | 2.3 | 3.8 |
| 20 (≈ 9.11 µM) | 25 (≈ 11.4 µM) | 20 (≈ 9.11 µM) | 25 (≈ 11.4 µM) | CSCC[C@H](NC(=O)[C@H](CCCNC(=N)N)NC(=O)[C@H](Cc1c[nH]c2ccccc12)NC(=O)[C@H](CCC(N)=O)NC(=O)[C@H](Cc1c[nH]c2ccccc12)NC(=O)[C@H](CCCNC(=N)N)NC(=O)[C@H](CCCNC(=N)N)NC(=O)[C@H](CSCNC(C)=O)NC(=O)[C@H](CCCCN)NC(=O)[C@@H](N)Cc1ccccc1)C(=O)N[C@@H](CCCCN)C(=O)N[C@@H](CCCCN)C(=O)N[C@@H](CC(C)C)C(=O)N[C@@H](Cc1c[nH]c2ccccc12)C(=O)N[C@@H](C)C(=O)O [LFB W14, H2N-Phe-Lys-Cys-Arg-Arg-Trp-Gln-Trp-Arg-Met-Lys-Lys-Leu-Trp-Ala-COOH] (H-FKC(Acm)RRWQWRMKKLWA-OH) | 3 | 4.1 |
| 750 (≈ 391 µM) | >1000 |  |  | CSCC[C@H](NC(=O)[C@H](CCC(=O)O)NC(=O)[C@H](Cc1c[nH]c2ccccc12)NC(=O)[C@H](CCC(N)=O)NC(=O)[C@H](Cc1c[nH]c2ccccc12)NC(=O)[C@H](CCCNC(=N)N)NC(=O)[C@H](CC(C)C)NC(=O)[C@H](CSCNC(C)=O)NC(=O)[C@H](CCCCN)NC(=O)[C@H](C)N)C(=O)N[C@@H](CCCNC(=N)N)C(=O)N[C@@H](CCCCN)C(=O)N[C@H](C(=O)NCC(=O)NCC(=O)O)C(C)C [LFM A1 W8] (H-AKC(Acm)LRWQWEMRKVGG-OH; N-terminus assumed) | 2.4 | 3 |
| 200 (≈ 107 µM) | >1000 |  |  | CSCC[C@H](NC(=O)[C@H](C)NC(=O)[C@H](Cc1c[nH]c2ccccc12)NC(=O)[C@H](CCC(N)=O)NC(=O)[C@H](Cc1c[nH]c2ccccc12)NC(=O)[C@H](CCCNC(=N)N)NC(=O)[C@H](CC(C)C)NC(=O)[C@H](CSCNC(C)=O)NC(=O)[C@H](CCCCN)NC(=O)[C@H](C)N)C(=O)N[C@@H](CCCNC(=N)N)C(=O)N[C@@H](CCCCN)C(=O)N[C@H](C(=O)NCC(=O)NCC(=O)O)C(C)C [LFM A1, 9 W8] (H-AKC(Acm)LRWQWAMRKVGG-OH; N-terminus assumed) | 2.8 | 3.7 |
| >1000 | >1000 |  |  | CSCC[C@H](NC(=O)[C@H](C)NC(=O)[C@H](Cc1c[nH]c2ccccc12)NC(=O)[C@H](CCC(N)=O)NC(=O)[C@H](Cc1c[nH]c2ccccc12)NC(=O)[C@H](CCCNC(=N)N)NC(=O)[C@H](CC(C)C)NC(=O)[C@H](CSCNC(C)=O)NC(=O)[C@H](CCCCN)NC(=O)[C@@H](N)CCC(=O)O)C(=O)N[C@@H](CCCNC(=N)N)C(=O)N[C@@H](CCCCN)C(=O)N[C@H](C(=O)NCC(=O)NCC(=O)O)C(C)C [LFM A9 W8] (H-EKC(Acm)LRWQWAMRKVGG-OH; N-terminus assumed) | 2.5 | 3.5 |
| 25 (≈ 12.3 µM) | 75 (≈ 36.9 µM) |  |  | CSCC[C@H](NC(=O)[C@H](CCCNC(=N)N)NC(=O)[C@H](Cc1c[nH]c2ccccc12)NC(=O)[C@H](CCC(N)=O)NC(=O)[C@H](Cc1c[nH]c2ccccc12)NC(=O)[C@H](CCCNC(=N)N)NC(=O)[C@H](CC(C)C)NC(=O)[C@H](CSCNC(C)=O)NC(=O)[C@H](CCCCN)NC(=O)[C@@H](N)CCCNC(=N)N)C(=O)N[C@@H](CCCNC(=N)N)C(=O)N[C@@H](CCCCN)C(=O)N[C@H](C(=O)NCC(=O)NCC(=O)O)C(C)C [LFM R1, 9 W8] (H-RKC(Acm)LRWQWRMRKVGG-OH; N-terminus assumed) | 3.69 |  |
| 75 (≈ 37.4 µM) | 500 (≈ 249 µM) |  |  | CSCC[C@H](NC(=O)[C@H](CCC(=O)O)NC(=O)[C@H](Cc1c[nH]c2ccccc12)NC(=O)[C@H](CCC(N)=O)NC(=O)[C@H](Cc1c[nH]c2ccccc12)NC(=O)[C@H](CCCNC(=N)N)NC(=O)[C@H](CC(C)C)NC(=O)[C@H](CSCNC(C)=O)NC(=O)[C@H](CCCCN)NC(=O)[C@@H](N)CCCNC(=N)N)C(=O)N[C@@H](CCCNC(=N)N)C(=O)N[C@@H](CCCCN)C(=O)N[C@H](C(=O)NCC(=O)NCC(=O)O)C(C)C [LFM R1, W8] (H-RKC(Acm)LRWQWEMRKVGG-OH; N-terminus assumed) | 2.8 | 3.48 |
| 500 (≈ 249 µM) | >1000 |  |  | CSCC[C@H](NC(=O)[C@H](CCCNC(=N)N)NC(=O)[C@H](Cc1c[nH]c2ccccc12)NC(=O)[C@H](CCC(N)=O)NC(=O)[C@H](Cc1c[nH]c2ccccc12)NC(=O)[C@H](CCCNC(=N)N)NC(=O)[C@H](CC(C)C)NC(=O)[C@H](CSCNC(C)=O)NC(=O)[C@H](CCCCN)NC(=O)[C@@H](N)CCC(=O)O)C(=O)N[C@@H](CCCNC(=N)N)C(=O)N[C@@H](CCCCN)C(=O)N[C@H](C(=O)NCC(=O)NCC(=O)O)C(C)C [LFM R9 W8] (H-EKC(Acm)LRWQWRMRKVGG-OH; N-terminus assumed) | 3.1 | 4.59 |
| >1000 | 1000 (≈ 506 µM) |  |  | CSCC[C@H](NC(=O)[C@H](CCC(=O)O)NC(=O)[C@H](Cc1c[nH]c2ccccc12)NC(=O)[C@H](CCC(N)=O)NC(=O)[C@H](Cc1c[nH]c2ccccc12)NC(=O)[C@H](CCCNC(=N)N)NC(=O)[C@H](CC(C)C)NC(=O)[C@H](CSCNC(C)=O)NC(=O)[C@H](CCCCN)NC(=O)[C@@H](N)CCC(=O)O)C(=O)N[C@@H](CCCNC(=N)N)C(=O)N[C@@H](CCCCN)C(=O)N[C@H](C(=O)NCC(=O)NCC(=O)O)C(C)C [LFM W8, H2N-Glu-Lys-Cys-Leu-Arg-Trp-Gln-Trp-Glu-Met-Arg-Lys-Val-Gly-Gly-COOH] (H-EKC(Acm)LRWQWEMRKVGG-OH) | 2.6 | 4.8 |
| >1000 | >1000 |  |  | CSCC[C@H](NC(=O)[C@H](CCC(=O)O)NC(=O)[C@H](CC(N)=O)NC(=O)[C@H](CCC(N)=O)NC(=O)[C@H](Cc1c[nH]c2ccccc12)NC(=O)[C@H](CCCNC(=N)N)NC(=O)[C@H](CC(C)C)NC(=O)[C@H](CSCNC(C)=O)NC(=O)[C@H](CCCCN)NC(=O)[C@@H](N)CCC(=O)O)C(=O)N[C@@H](CCCNC(=N)N)C(=O)N[C@@H](CCCCN)C(=O)N[C@H](C(=O)NCC(=O)NCC(=O)O)C(C)C [LFM, EKCLRWQNEMRKVGG] (H-EKC(Acm)LRWQNEMRKVGG-OH; N-terminus assumed) | 2.3 | 3.1 |
